Assay results from ChEMBL document CHEMBL1134497, “Soluble 2-substituted aminopyrido[2,3-d]pyrimidin-7-yl ureas. Structure-activity relationships against selected tyrosine kinases and exploration of in vitro and in vivo anticancer activity” (J Med Chem, 2001).

Tests used:
[1] = biological target: Fibroblast growth factor receptor 1 (Homo sapiens, UniProt P11362)
Description: Ability to prevent phosphorylation of human fibroblast growth factor receptor 1

[2] = biological target: Platelet-derived growth factor receptor beta (Mus musculus, UniProt P05622); assay: Ability to prevent phosphorylation of isolated mouse PDGF receptor beta
Chain of Platelet-derived growth factor receptor beta (P05622 whole entry): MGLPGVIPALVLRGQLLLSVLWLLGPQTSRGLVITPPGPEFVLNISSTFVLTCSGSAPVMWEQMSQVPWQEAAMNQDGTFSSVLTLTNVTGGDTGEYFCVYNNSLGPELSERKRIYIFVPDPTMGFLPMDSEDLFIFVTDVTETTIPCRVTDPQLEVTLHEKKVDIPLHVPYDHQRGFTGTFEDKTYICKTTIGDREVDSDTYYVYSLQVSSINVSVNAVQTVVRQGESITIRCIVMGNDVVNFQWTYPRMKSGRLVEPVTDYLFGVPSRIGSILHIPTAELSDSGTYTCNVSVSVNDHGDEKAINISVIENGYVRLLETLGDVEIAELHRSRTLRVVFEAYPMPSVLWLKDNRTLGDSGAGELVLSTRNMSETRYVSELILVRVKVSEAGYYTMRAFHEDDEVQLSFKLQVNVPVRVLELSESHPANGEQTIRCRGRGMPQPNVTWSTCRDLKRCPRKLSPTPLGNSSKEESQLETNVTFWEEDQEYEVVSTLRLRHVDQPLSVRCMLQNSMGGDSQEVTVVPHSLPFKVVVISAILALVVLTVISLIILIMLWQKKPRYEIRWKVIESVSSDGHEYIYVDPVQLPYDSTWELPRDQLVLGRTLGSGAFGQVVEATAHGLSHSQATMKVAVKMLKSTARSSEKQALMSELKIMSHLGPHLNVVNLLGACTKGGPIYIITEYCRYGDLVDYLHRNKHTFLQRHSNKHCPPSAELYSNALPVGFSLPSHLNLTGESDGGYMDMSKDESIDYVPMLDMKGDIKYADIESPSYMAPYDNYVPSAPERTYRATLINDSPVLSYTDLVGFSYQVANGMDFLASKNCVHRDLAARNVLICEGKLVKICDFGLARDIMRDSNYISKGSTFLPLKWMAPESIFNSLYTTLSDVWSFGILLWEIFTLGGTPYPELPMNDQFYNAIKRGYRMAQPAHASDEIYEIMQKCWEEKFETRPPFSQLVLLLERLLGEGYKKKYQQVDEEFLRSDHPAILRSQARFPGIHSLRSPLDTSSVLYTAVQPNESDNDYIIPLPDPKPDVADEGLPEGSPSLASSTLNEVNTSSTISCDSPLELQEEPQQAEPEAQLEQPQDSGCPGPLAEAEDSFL

[3] = biological target: Proto-oncogene tyrosine-protein kinase Src (Gallus gallus, UniProt P00523); assay: Ability to prevent phosphorylation of avian c-Src TK
NIH3T3 = assay: Inhibition of NIH3T3/PDGF Mouse transfected fibroblasts cell line; assay type: functional, cell-based
HCT-8 = assay: Inhibition of human colon carcinoma HCT-8 cell proliferation; assay type: functional, cell-based
[4] = Inhibition of MEK1/ERK (MAP kinase kinase) in cascade assay
C6 = assay: Inhibition of C-6 rat glioma cell proliferation; assay type: functional, cell-based
[5] = biological target: Platelet-derived growth factor receptor (PDGFr) (Rattus norvegicus, UniProt P20786+Q05030); assay: Inhibition of PDGF receptor autophosphorylation in rat aortic vascular smooth muscle cells
SW-620 = assay: Inhibition of human colon carcinoma SW-620 cell proliferation; assay type: functional, cell-based
HT-29 = assay: Inhibition of human colon carcinoma HT-29 cell proliferation; assay type: functional, cell-based
Protein kinase C (PKC) = assay: Inhibition of protein kinase C; assay type: protein assay
[6] = biological target: Cyclin-dependent kinase 4 (Homo sapiens, UniProt P11802); assay: Inhibition of cyclin dependent kinase 4 (CDK4)
Chain of Cyclin-dependent kinase 4 (P11802 whole entry): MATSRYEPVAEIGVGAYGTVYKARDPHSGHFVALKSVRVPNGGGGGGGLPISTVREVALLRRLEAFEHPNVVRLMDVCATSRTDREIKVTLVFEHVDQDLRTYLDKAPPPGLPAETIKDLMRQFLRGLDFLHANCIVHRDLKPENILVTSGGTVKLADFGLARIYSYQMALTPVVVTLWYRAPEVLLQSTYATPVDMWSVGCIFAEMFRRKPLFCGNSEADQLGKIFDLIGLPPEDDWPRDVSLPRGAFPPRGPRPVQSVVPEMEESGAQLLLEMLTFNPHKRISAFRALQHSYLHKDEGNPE

[7] = Inhibition of MEK1/ERK (MAP Kinase kinase) in cascade assay

Chain of Fibroblast growth factor receptor 1 (P11362 whole entry): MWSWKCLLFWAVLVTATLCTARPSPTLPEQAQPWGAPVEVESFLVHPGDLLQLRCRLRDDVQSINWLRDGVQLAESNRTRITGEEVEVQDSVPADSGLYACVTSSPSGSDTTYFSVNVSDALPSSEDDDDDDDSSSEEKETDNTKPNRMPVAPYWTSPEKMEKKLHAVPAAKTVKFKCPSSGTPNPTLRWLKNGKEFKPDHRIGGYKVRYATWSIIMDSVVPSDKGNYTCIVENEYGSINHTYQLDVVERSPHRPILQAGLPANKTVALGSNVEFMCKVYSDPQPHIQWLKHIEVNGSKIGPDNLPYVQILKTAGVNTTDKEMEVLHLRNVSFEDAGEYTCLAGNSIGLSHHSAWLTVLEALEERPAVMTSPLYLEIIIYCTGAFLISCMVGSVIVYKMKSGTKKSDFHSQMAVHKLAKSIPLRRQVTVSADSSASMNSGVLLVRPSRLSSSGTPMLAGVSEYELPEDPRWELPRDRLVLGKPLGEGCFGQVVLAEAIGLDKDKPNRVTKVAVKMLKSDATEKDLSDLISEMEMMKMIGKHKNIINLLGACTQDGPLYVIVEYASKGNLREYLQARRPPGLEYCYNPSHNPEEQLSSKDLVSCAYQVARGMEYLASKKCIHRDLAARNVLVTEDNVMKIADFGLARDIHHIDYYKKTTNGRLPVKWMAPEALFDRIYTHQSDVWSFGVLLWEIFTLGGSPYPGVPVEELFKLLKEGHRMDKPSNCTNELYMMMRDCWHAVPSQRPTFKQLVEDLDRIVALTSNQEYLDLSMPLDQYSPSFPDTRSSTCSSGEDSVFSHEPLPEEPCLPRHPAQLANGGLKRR

Compound	IC50 [1]	IC50 [2]	IC50 [3]	also measured
CN1CCN(CCCNc2ncc3cc(-c4c(Cl)cccc4Cl)c(NC(N)=O)nc3n2)CC1	140 nM	2400 nM	61 nM	–
CCN(CC)CCCNc1ncc2cc(-c3c(C)cccc3C)c(NC(=O)NC(C)(C)C)nc2n1	340 nM	–	98 nM	–
C=CCNC(=O)Nc1nc2nc(NCCCN3CCN(C)CC3)ncc2cc1-c1c(Cl)cccc1Cl	35 nM	760 nM	22 nM	–
CCN(CC)C(=O)Nc1nc2nc(NCCCN3CCN(C)CC3)ncc2cc1-c1c(Cl)cccc1Cl	5500 nM	> 50000 nM	> 50000 nM	–
CCN(CC)CCCCNc1ncc2cc(-c3c(Cl)cccc3Cl)c(NC(=O)NC3CCCCC3)nc2n1	43 nM	330 nM	12 nM	–
Cc1ccc(NC(=O)Nc2nc3nc(NCCCN4CCN(C)CC4)ncc3cc2-c2c(Cl)cccc2Cl)cc1	110 nM	840 nM	36 nM	–
Cc1cc(C)c(C)c(-c2cc3cnc(N)nc3nc2N)c1C	> 50000 nM	> 50000 nM	> 50000 nM	–
CN(C)CCCNc1ncc2cc(-c3c(Cl)cccc3Cl)c(NC(=O)NC(C)(C)C)nc2n1	–	–	120 nM	–
CN1CCN(CCCNc2ncc3cc(-c4c(Cl)cccc4Cl)c(NC(=O)Nc4ccc(C(F)(F)F)cc4)nc3n2)CC1	–	5500 nM	190 nM	–
CN1CCN(CCCNc2ncc3cc(-c4c(Cl)cccc4Cl)c(N)nc3n2)CC1	450 nM	9600 nM	180 nM	–
COc1ccc(NC(=O)Nc2nc3nc(NCCCN4CCN(C)CC4)ncc3cc2-c2c(Cl)cccc2Cl)cc1	–	–	33 nM	–
CCN(CC)CCCNc1ncc2cc(-c3c(Cl)cccc3Cl)c(NC(=O)NC(C)(C)C)nc2n1	–	–	73 nM	–
CC(C)NC(=Nc1nc2nc(NCCCN3CCN(C)CC3)ncc2cc1-c1c(Cl)cccc1Cl)NC(C)C	2500 nM	–	850 nM	–
CN1CCN(CCCNc2ncc3cc(-c4c(Cl)cccc4Cl)c(NC(=O)Nc4ccc(Cl)c(Cl)c4)nc3n2)CC1	600 nM	5000 nM	92 nM	–
COc1cc(OC)cc(-c2cc3cnc(N)nc3nc2NC(=O)NC(C)(C)C)c1	48 nM	–	–	–
CC(C)(C)NC(=O)Nc1nc2nc(N)ncc2cc1-c1c(Br)cccc1Br	–	1400 nM	210 nM	–
CN1CCN(CCCNc2ncc3cc(-c4c(Cl)cccc4Cl)c(N=C(N)Nc4ccccc4)nc3n2)CC1	2800 nM	37000 nM	860 nM	–
CCN(CC)CCCNc1ncc2cc(-c3c(Cl)cccc3Cl)c(N)nc2n1	–	–	750 nM	–
CCCC(=O)Nc1nc2nc(NCCCN3CCN(C)CC3)ncc2cc1-c1c(Cl)cccc1Cl	3700 nM	> 50000 nM	2700 nM	–
CCNC(=O)Nc1nc2nc(NCCCN(CC)CC)ncc2cc1-c1c(Cl)cccc1Cl	130 nM	1300 nM	94 nM	–
CCNC(=O)Nc1nc2nc(NCCCCN(CC)CC)ncc2cc1-c1c(Cl)cccc1Cl	–	–	–	IC50 (NIH3T3): 1010 nM; IC50 (HCT-8): 4020 nM; IC50 [4]: > 5000 nM; IC50 (C6): 8800 nM; IC50 [5]: 240 nM; IC50 (SW-620): 2760 nM; IC50 (HT-29): 1170 nM; IC50 (Protein kinase C (PKC)): > 50000 nM; IC50 [6]: > 40000 nM

Compound	IC50 [1]	IC50 [2]	IC50 [3]	also measured
COc1ccccc1NC(=O)Nc1nc2nc(NCCCN3CCN(C)CC3)ncc2cc1-c1c(Cl)cccc1Cl	67 nM	660 nM	16 nM	–
CN1CCN(CCCNc2ncc3cc(-c4c(Cl)cccc4Cl)c(NS(=O)(=O)c4ccccc4)nc3n2)CC1	68 nM	6900 nM	22 nM	–
CCCCCCCCNC(=O)Nc1nc2nc(NCCCN3CCN(C)CC3)ncc2cc1-c1c(Cl)cccc1Cl	420 nM	–	120 nM	–
CN1CCN(CCCNc2ncc3cc(-c4c(Cl)cccc4Cl)c(NC(=S)Nc4ccccc4)nc3n2)CC1	320 nM	2200 nM	22 nM	–
CCN(CC)CCCNc1ncc2cc(-c3c(Cl)cccc3Cl)c(NC(=O)CC(C)(C)C)nc2n1	27000 nM	> 50000 nM	19000 nM	–
CN(C)CCNC(=O)Nc1nc2nc(NCCCN3CCN(C)CC3)ncc2cc1-c1c(Cl)cccc1Cl	75 nM	2400 nM	20 nM	–
CC1CCCCN1CCCNc1ncc2cc(-c3c(Cl)cccc3Cl)c(NC(=O)NC(C)(C)C)nc2n1 (stereo not given)	–	730 nM	16 nM	–
CN1CCN(CCCCNc2ncc3cc(-c4c(Cl)cccc4Cl)c(NC(=O)NC(C)(C)C)nc3n2)CC1	–	280 nM	10 nM	–
CC(C)(C)NC(=O)Nc1nc2nc(NCCCN3CCOCC3)ncc2cc1-c1c(Cl)cccc1Cl	–	–	100 nM	–
CN1CCN(CCCNc2ncc3cc(-c4c(Cl)cccc4Cl)c(NC(=O)Nc4cccc5ccccc45)nc3n2)CC1	300 nM	–	130 nM	–
CN1CCN(CCCNc2ncc3cc(-c4c(Cl)cccc4Cl)c(NC(=O)Nc4ccc(Br)cc4)nc3n2)CC1	110 nM	1500 nM	33 nM	–
CCN(CC)CCCCNc1ncc2cc(-c3c(Cl)cccc3Cl)c(NC(=O)NC(C)(C)C)nc2n1	–	–	7.4 nM	IC50 [7]: 2800 nM; IC50 (HCT-8): 16300 nM; IC50 (C6): 5800 nM; IC50 (SW-620): > 25000 nM; IC50 (HT-29): 900 nM; IC50 (Protein kinase C (PKC)): 23000 nM; IC50 [6]: > 40000 nM
CCN(CC)CCCCNc1ncc2cc(-c3c(Cl)cccc3Cl)c(NC(=S)NCCCN3CCOCC3)nc2n1	130 nM	1100 nM	22 nM	–
Cc1cc(C)c(C)c(-c2cc3cnc(N)nc3nc2NC(=O)NC(C)(C)C)c1C	–	> 50000 nM	> 50000 nM	–
CN(C)CCCN(C)c1ncc2cc(-c3c(Cl)cccc3Cl)c(NC(=O)NC(C)(C)C)nc2n1	2000 nM	16000 nM	1100 nM	–
COc1cc(OC)cc(-c2cc3cnc(N)nc3nc2N)c1	–	–	> 50000 nM	–
CCN(CC)CCCNc1ncc2cc(-c3c(Br)cccc3Br)c(N)nc2n1	8300 nM	> 50000 nM	760 nM	–
CCN(CC)CCCNc1ncc2cc(-c3c(Cl)cccc3Cl)c(NC(=O)NC(C)C)nc2n1	–	–	78 nM	–
CCN(CC)CCCNc1ncc2cc(-c3c(Cl)cccc3Cl)c(/N=C\N(C)C)nc2n1	10000 nM	> 50000 nM	4000 nM	–
CC(C)NC(=O)Nc1nc2nc(NCCCN3CCN(C)CC3)ncc2cc1-c1c(Cl)cccc1Cl	34 nM	550 nM	19 nM	–
CCN(CC)CCCNc1ncc2cc(-c3c(C)cccc3C)c(N)nc2n1	18000 nM	25000 nM	450 nM	–

Compound	IC50 [1]	IC50 [2]	IC50 [3]	also measured
CN1CCN(CCCNc2ncc3cc(-c4c(Cl)cccc4Cl)c(NC(=O)NC(C)(C)C)nc3n2)CC1	–	–	–	IC50 [7]: 7000 nM; IC50 (NIH3T3): 1080 nM; IC50 (HCT-8): > 15200 nM; IC50 (C6): 4000 nM; IC50 (SW-620): > 25000 nM; IC50 (HT-29): 11100 nM; IC50 (Protein kinase C (PKC)): 22000 nM; IC50 [6]: > 40000 nM
CC(C)(C)NC(=O)Nc1nc2nc(N)ncc2cc1-c1c(Cl)cccc1Cl	–	1200 nM	220 nM	–
CN1CCN(CCCNc2ncc3cc(-c4c(Cl)cccc4Cl)c(NC(=O)NCCNC(=O)OC(C)(C)C)nc3n2)CC1	67 nM	4200 nM	150 nM	–
CCN(CC)CCNc1ncc2cc(-c3c(Cl)cccc3Cl)c(NC(=O)NC(C)(C)C)nc2n1	1800 nM	9000 nM	4100 nM	–
Nc1ncc2cc(-c3c(Br)cccc3Br)c(N)nc2n1	–	–	1600 nM	–
CN1CCN(CCCNc2ncc3cc(-c4c(Cl)cccc4Cl)c(NC(=O)NC45C[C@H]6C[C@@H](C4)C[C@@H](C5)C6)nc3n2)CC1	120 nM	2800 nM	120 nM	–
CCNC(=O)Nc1nc2nc(NCCN(CC)CC)ncc2cc1-c1c(Cl)cccc1Cl	1300 nM	12000 nM	2600 nM	–
CCN(CC)CCCNc1ncc2cc(-c3c(Br)cccc3Br)c(NC(=O)NC(C)(C)C)nc2n1	190 nM	1100 nM	97 nM	–
CN1CCN(CCCNc2ncc3cc(-c4c(Cl)cccc4Cl)c(/N=C(/S)NC(C)(C)C)nc3n2)CC1	100 nM	–	220 nM	–
Nc1ncc2cc(-c3c(Cl)cccc3Cl)c(N)nc2n1	–	16000 nM	210 nM	–
Cc1cccc(C)c1-c1cc2cnc(N)nc2nc1N	13000 nM	29000 nM	430 nM	–
CN1CCN(CCCNc2ncc3cc(-c4c(Cl)cccc4Cl)c(NC(=O)Nc4ccc(Cl)cc4)nc3n2)CC1	120 nM	1800 nM	40 nM	–
CN(C)CC(C)(C)CNc1ncc2cc(-c3c(Cl)cccc3Cl)c(NC(=O)NC(C)(C)C)nc2n1	210 nM	3200 nM	3500 nM	–
CN1CCN(CCCNc2ncc3cc(-c4c(Cl)cccc4Cl)c(NC(=O)Cc4ccccc4)nc3n2)CC1	6800 nM	> 50000 nM	3300 nM	–
CC/N=C(\N)Nc1nc2nc(NCCCN(CC)CC)ncc2cc1-c1c(Cl)cccc1Cl	2700 nM	> 50000 nM	1400 nM	–
CN1CCN(CCCNc2ncc3cc(-c4c(Cl)cccc4Cl)c(NC(=O)CC(C)(C)C)nc3n2)CC1	8000 nM	> 50000 nM	8400 nM	–
CCNC(=S)Nc1nc2nc(NCCCN(CC)CC)ncc2cc1-c1c(Cl)cccc1Cl	260 nM	5000 nM	130 nM	–
COc1cccc(NC(=O)Nc2nc3nc(NCCCN4CCN(C)CC4)ncc3cc2-c2c(Cl)cccc2Cl)c1	–	910 nM	29 nM	–
CCNC(=O)Nc1nc2nc(NCCCN3CCN(C)CC3)ncc2cc1-c1c(Cl)cccc1Cl	–	–	24 nM	IC50 (HCT-8): 9300 nM; IC50 (C6): 6700 nM; IC50 (SW-620): 2500 nM; IC50 (HT-29): 900 nM
